Laboratory results as given in patent publication US20090081189A1, “Process for in vitro differentiation of neuronal stem cells or of cells derived from neuronal stem cells” (Axaron Bioscfience Ag, priority 2003, published 2009).

System: beta-catenin
Assay: Western blot of beta-catenin in adult neuronal stem and progenitor cells after inhibition of the Wnt signal pathway
Type: cell-based, rat
Conditions: genistein 50 μM, undifferentiated and differentiated, densitometry of Western blot, versus cells without inhibition
Protocol: To inhibit the Wnt signal pathway, the unspecific kinase inhibitor genistein is added at a concentration of 50 μM in order to inhibit the action of glycogen synthase kinase 3 (GSK 3) (Murase S et al., 2002, Neuron, 35, 91-105).
Subsequently, a protein extract (see above, example 1) is prepared and the beta-catenin protein is identified by one dimensional gel electrophoresis and Western blotting (FIG. 3, FIG. 4).
The protein extracts of the adult neuronal stem cells are first fractionated in a 12% polyacrylamide gel in Lammli buffer consisting of 2% (w/v) sodium dodecylsulfate, 10% (v/v) glycerol, 100 mM dithiothreitol, 60 mM Tris-HCl, pH 6.8, 0.001% bromophenol blue and 5% 2-mercaptoethanol and applied to a nitrocellulose membrane (Optitran BA-S83, 0.2 μm, Schleicher & Schnell, Dassel, Germany) by the semi-dry blotting method (Kyhse-Andersen J, 1984, J Biochem Biophys Methods, 10, 203-209). […] Antibody binding is detected by way of chemiluminescent signals. […] The X-ray films are developed and measured densitometrically. […]

Which “reduction of β-catenin expression (factor)” value does the source give for O=c1c(-c2ccc(O)cc2)coc2cc(O)cc(O)c12 [genistein, 4′,5,7-trihydroxyisoflavone] here?
Its value is ~2.
